Laboratory results as given in patent publication US20260091086A1, “POLYPEPTIDE COMBINATIONS AND USES THEREOF” (MEDIMMUNE LIMITED, priority 2024, published 2026).

How the values were obtained:
AMY3R/CTR [1] = test: Relative potency ratio, cAMP accumulation assays with 0.1% BSA, rat receptors; format: cell-based; settings: 0.1% bovine serum albumin, n ≥ 5; potencies relative to pramlintide 100%
Method: (§1) Target engagement was estimated in the following way for each compound. The maximum concentration (Cmax) after subcutaneous injection was measured in separate rat pharmacokinetic studies and was dose-adjusted to the tested dose levels when appropriate, assuming dose linearity. Plasma protein binding was determined in vitro using 3B Pharmaceutical's Escalate Equilibrium Shift Assay or an in-house Surface Plasmon Resonance (SPR) assay. Peptide in vitro potency was determined via HTRF CAMP accumulation assay using HEK293 cells recombinantly expressing the rat calcitonin receptor or rat amylin receptor (calcitonin receptor plus RAMP3) in saline buffer containing 0.1% bovine serum albumin. The in vitro potencies (IC50s) for amylin and calcitonin were adjusted to unbound values by taking into account the albumin concentration in the assay and fraction unbound data, according to an established method (Wan H and Bergström F (2007), High Throughput Screening of Drug-Protein Binding in Drug Discovery, Journal of Liquid Chromatography & Related Technologies, 30:5, 681-700; doi: 10.1080/10826070701190989). Finally, the target engagement was calculated as the unbound Cmax divided by the unbound IC50, both for amylin and calcitonin. The Emax model was defined as aversion=E0+Emax×(ENG^h/(ENG^h+ED50^h)), where E0 is the baseline aversion, Emax is the maximum induced aversion, ENG is the receptor engagement, and h is the slope (Hill) parameter. Parameter estimation was performed according to a maximum likelihood approach with an additive error model, incorporating data from all compounds simultaneously. Uncertainty of parameter estimates was determined by bootstrapping, sampling single measurements randomly with replacement within each experiment (N=500). Numeric analyses were performed in MATLAB (R2023b; The MathWorks, Natick, MA). The aversion data are given as mean and standard error (N=9-11 per group). In this experiment, the LAA/SARA1 was that of SEQ ID NO: 11, SARA2 was eloralintide, DACRA1 was cagrilintide, and DACRA2 was petrelintide.

AMY3R/CTR [2] = test: Relative potency ratio, cAMP accumulation assays with 0.1% BSA, human receptors; format: cell-based; settings: 0.1% bovine serum albumin, n ≥ 5; potencies relative to pramlintide 100%
rat calcitonin receptor = biological target: T1, rat calcitonin receptor (Rattus norvegicus, UniProt P32214); test: Target engagement estimate (unbound Cmax / unbound in vitro potency), calcitonin receptor; settings: DACRA 10 nmol/kg vs LAA 30 nmol/kg
T1 construct: expressed in transfected cells; host or cells: HEK293
T1 sequence (P32214 25-516): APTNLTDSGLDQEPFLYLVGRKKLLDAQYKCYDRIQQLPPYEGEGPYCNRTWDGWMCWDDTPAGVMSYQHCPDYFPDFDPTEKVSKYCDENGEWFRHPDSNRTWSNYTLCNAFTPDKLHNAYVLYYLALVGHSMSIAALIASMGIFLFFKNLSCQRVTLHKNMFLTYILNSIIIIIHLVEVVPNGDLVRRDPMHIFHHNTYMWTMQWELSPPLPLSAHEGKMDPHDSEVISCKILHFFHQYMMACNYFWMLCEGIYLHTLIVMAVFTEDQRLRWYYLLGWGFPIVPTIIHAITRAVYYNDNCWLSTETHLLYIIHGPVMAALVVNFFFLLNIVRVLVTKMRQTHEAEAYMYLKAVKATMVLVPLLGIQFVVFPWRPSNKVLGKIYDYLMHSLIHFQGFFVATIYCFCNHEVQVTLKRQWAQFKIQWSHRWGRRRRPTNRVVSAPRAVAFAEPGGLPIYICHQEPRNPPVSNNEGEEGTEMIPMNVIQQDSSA
Method: as §1, with “The Emax model was defined as aversion=E0+Emax×(ENG^h/(ENG^h+ED50^h)), where E0 is the baseline aversion, Emax is the maximum induced aversion, ENG is the receptor engagement, and h is the slope (Hill) parameter. Parameter estimation was performed according to a maximum likelihood approach with an additive error model, incorporating data from all compounds simultaneously.” left out, “Numeric analyses were performed in MATLAB (R2023b; The MathWorks, Natick, MA). The aversion data are given as mean and standard error (N=9-11 per group). In this experiment, the LAA/SARA1 was that of SEQ ID NO: 11, SARA2 was eloralintide, DACRA1 was cagrilintide, and DACRA2 was petrelintide.” left out

[3] = tested on: High-fat diet (DIO) fed rats; test: Example 9: 4-week LAA or DACRA monotherapy in DIO rats; format: in vivo, rat; settings: for BW reduction compared to vehicle / reduction of cumulative food intake: 4 weeks; for proportion of body weight loss that was fat-mass specific: FIG. 8C
From the text: Study 1 Design: High-fat diet (DIO) fed rats were used to profile LAA or DACRA monotherapy to evaluate food intake, body weight-lowering and body composition effects in a 4-week study. In this experiment, the LAA was that of SEQ ID NO: 11 and the DACRA was cagrilintide.

Relative potency ratio (AMY3R/CTR), Rat (AMY3R/CTR [1]): 0.01
Relative potency ratio (AMY3R/CTR), Human (AMY3R/CTR [2]): 0.08
calcitonin engagement, fold more than LAA (rat calcitonin receptor): 2-3 fold
Substance: cagrilintide [DACRA]
BW reduction compared to vehicle ([3]; 1 nmol/kg): −3±0.6%
reduction of cumulative food intake ([3]; 1 nmol/kg): −7.1±2.1 % of vehicle
BW reduction compared to vehicle ([3]; 3 nmol/kg): −5.3±1.1%
reduction of cumulative food intake ([3]; 3 nmol/kg): −16±2.5 % of vehicle
BW reduction compared to vehicle ([3]; 10 nmol/kg): −8.8±1.4%
reduction of cumulative food intake ([3]; 10 nmol/kg): −23.9±3.5 % of vehicle
BW reduction compared to vehicle ([3]; 20 nmol/kg): −11.6±0.9%
reduction of cumulative food intake ([3]; 20 nmol/kg): −23.7±1.1 % of vehicle
fat-mass loss ([3]; end of study, 10 nmol/kg): -15.5 ± 6.0 g
proportion of body weight loss that was fat-mass specific ([3]; end of study, 10 nmol/kg): 54%
proportion of body weight loss that was fat-mass specific ([3]; end of study, 20 nmol/kg): 61%
lean mass ([3]; end of study, FIG. 8B): Lean mass was preserved in the LAA groups, unlike in the DACRA groups
